The assay deals with neoantigen-specific CD8+ T cells. Nature of the assay: immune monitoring of vaccinated patients, HLA/peptide dextramer (tetramer) assay on cultured PBMC. The class given is in vivo, human. As to conditions: for Immunogenicity: AAS-directed CD8+ T cell response in vaccinated patient; for frequency of neoantigen-specific CD8+ T cells / T cell response upon vaccination: post-vaccine PBMC, dextramer assay; for frequency of neoantigen-specific CD8+ T cells: upon culture, at the peak of response; for Spontaneous Immunity: pre-vaccine (naturally-occurring) CD8+ T cell response, immune monitoring assay; for pre-existing (naturally occurring) T cell immunity: pre-vaccine PBMC samples after in vitro stimulation. The procedure: Immunologic monitoring (Examples 1-10). Immunologic analysis to evaluate the kinetics and magnitude of T cell response to gp100 peptides was performed using PBMCs collected weekly (prior to vaccination and until week 21. Fresh PBMCs obtained by Ficoll-Hypaque gradient centrifugation were adjusted to 2×10^6 cells/ml in Stemline media (Sigma-Aldrich) containing 5% human AB-serum, and dispersed at 1 ml/well in 24-well plates. Cultures were set up for the gp100 peptides and the CMV pp65 peptide (positive peptide control). Cultures were pulsed with 40 μg/ml peptide and 50 U/ml IL-2 fed starting at 48 hours and every other day thereafter. On day 12 (peak of response; the inventors' unpublished observation), cultures were harvested, counted, and stained for flow cytometry analysis. To assess the antigen-specific T cell frequency, cells were stained with HLAA*0201/peptide tetramers (Beckman Coulter) for 30 minutes at room temperature, followed by addition of FITC-conjugated CD4, CD14, CD19, and CD56 and allophycocyanin-conjugated CD8 (Invitrogen) for 15 minutes at 4° C. Cells were washed and resuspended in FACS buffer, and 7AAD was added 5 minutes before analysis. Control CMV pp65-specific CD8+ T cells were detected in all CMV-seropositive patients before and after immunization. A negative HLA-A*0201/HIV gag peptide tetramer control was included. 25,000 events in the CD8+ gate were collected using a hierarchical gating strategy that included FSC/SSC and excluded 7AAD+ (dead) cells and CD4+CD14+CD19+CD56+ cells. Data were acquired and analyzed using Flow-Jo software.
To examine the kinetics and magnitude of T cell immunity to AAS peptides upon vaccination, peripheral blood mononuclear cells (PBMC) were collected prior to vaccination and weekly thereafter. The CD8+ T cell response to each peptide was analyzed using a HLA-A*02:01/AAS-peptide dextramer assay after a single round of in vitro stimulation. FIG. 30A illustrates kinetics of immune responses to neoantigens. Time is recorded in weeks (0 indicates pre-vaccination). Culture conditions and staining details are described infra. Antigen-specific numbers were calculated based on dextramer percentage and total live cell yields. Immunologic analysis to evaluate the kinetic and magnitude of T cell response to AAS-encoding and gp100-derived peptides was performed using PBMC collected weekly, starting before DC vaccination (Pre-vaccine in the figures) as described (Carreno, B. M., et al., J. Clin. Invest., 123, 3383-3394, 2013). Briefly, fresh PBMC obtained by Ficoll-Paque PLUS gradient centrifugation were cultured with 40 ug/mL peptide and IL-2 (50 U/mL). On day 10 (peak of response, unpublished data, labeled “Post-Vaccine” in the figures), neoantigen specific T cell frequencies were determined by staining with HLA-A*02:01/peptide dextramers (Immudex), followed by addition of FITC-CD4, -CD14, -CD19 (Invitrogen) and ALEXA® 488-CD56 (BD Pharmigen), APC-CD8 (Invitrogen). Cells were washed, resuspended in FACS buffer containing 7AAD. Twenty five thousand events in the CD8+ gate were collected using a hierarchical gating strategy that included FSC/SSC and excluded 7AAD-positive (dead cells) and CD4/14/19/56-positive cells. PBMC/CD8+ T cells derived from an unrelated HLA-A*02:01 patient were used as negative controls for assessing specificity of HLA-A*02:01/AAS-peptide dextramers (data not shown). Data were acquired and analyzed using Flow-Jo software. […] FIG. 30B illustrates the frequency of neoantigen specific T cells in CD8+ populations isolated directly from PBMC samples and after ex-vivo expansion using autologous DC and artificial antigen presenting cells. For dominant neoantigens TMEM48 F169L, SEC24A P469L and EXOC8 Q656, results are shown for samples obtained before vaccination (Pre-vaccine) and after 3 vaccine doses (Post-vaccine). For remaining neoantigens, results obtained with post-vaccine PBMC samples are shown. […]

No end group written: not given here.

Data on 5 sequences can be found in patent US20170202939A1, “PERSONALIZED CANCER VACCINES AND METHODS THEREFOR” (Washington University, priority 2014, published 2017).

For the sequence CLNEYHLFL, the Immunogenicity result was “Yes”, the “frequency of neoantigen-specific CD8+ T cells” value (“frequency” below) is reported as 23%, the “Spontaneous Immunity” value is “Yes” and the “pre-existing (naturally occurring) T cell immunity” value is “could be detected in pre-vaccine PBMC samples”.
As to IILVAVPHV, the “frequency” value was found to be 89% and the “pre-existing (naturally occurring) T cell immunity” value is reported as “could be detected in pre-vaccine PBMC samples”.
For KLMNIQQKL, the Immunogenicity result is “Yes”, the “frequency” value amounted to 47%, the “T cell response upon vaccination” value is on record as “reveal two additional ones” and the “Spontaneous Immunity” value was “No”.
Turning to MLGEQLFPL, the Immunogenicity entry is listed as “Yes”, the “frequency” value amounted to 84% and the “Spontaneous Immunity” value was “No”.
Take QLSCISTYV: the Immunogenicity result was “Yes”, the “frequency” value came out at 42%, the “T cell response upon vaccination” value is “reveal two additional ones” and the “Spontaneous Immunity” value is on record as “No”.
